Literature values in PMC4860011 (Biochemistry, 2015).

Target: bsNOS (Bacillus subtilis, UniProt O34453)
Settings: read-out: KD of imidazole; used to convert KS,app to KS

Sequence of bsNOS (O34453 whole entry): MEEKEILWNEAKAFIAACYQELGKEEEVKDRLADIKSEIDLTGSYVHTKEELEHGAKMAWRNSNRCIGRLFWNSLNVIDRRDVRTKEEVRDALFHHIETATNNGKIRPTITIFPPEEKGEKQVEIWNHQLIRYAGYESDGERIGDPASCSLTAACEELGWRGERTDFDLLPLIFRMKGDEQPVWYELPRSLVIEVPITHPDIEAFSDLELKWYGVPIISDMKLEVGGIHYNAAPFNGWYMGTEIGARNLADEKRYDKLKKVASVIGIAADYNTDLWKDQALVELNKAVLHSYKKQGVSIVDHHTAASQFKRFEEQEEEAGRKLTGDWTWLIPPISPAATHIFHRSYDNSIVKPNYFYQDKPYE

c1c[nH]cn1 [imidazole]
Kd: 384 µM
